Results: paper PMC6271245, “Discovery of Gramine Derivatives That Inhibit the Early Stage of EV71 Replication in Vitro” (Molecules, 2014)

Assays:
EV71 RNA = experiment: Viral RNA synthesis by quantitative RT-PCR in RD cells; assay type: cell-based, Enterovirus 71; details: 40 µg/mL
Experimental: To further analyze the effect of 4s on EV71 replication in RD cells, the efficacy of 4s in inhibiting viral RNA synthesis was analyzed by quantitative reverse transcription polymerase chain reaction (RT-PCR). The infected cells treated with or without 40 µg/mL 4s were harvested at 4, 8, 24 and 36 h pi to examine the relative amount of viral RNA. The fold difference of RNA for all the samples was calculated relative to the RNA level in the EV71-infected cells (virus control) at 4 h pi.
(§1) Figure 4 The effect of 4s on EV71 replication in RD cells. RD cells infected with 100 TCID50 of EV71 were incubated in the absence (virus control) or presence of 40 µg/mL 4s and harvested at the indicated times pi. (A) Total RNA was extracted from cells and culture supernatants and EV71 RNA levels were measured. Cellular actin amplification was used for normalization. The ΔΔCt data were calculated from three independent experiments; (B) EV71-protein was determined by indirect immunofluorescence using a mouse anti-enterovirus 71 monoclonal antibody and an Alexa-Fluor-488-conjugated AffiniPure goat anti-mouse IgG (H + L). The nucleus was stained with DAPI; the green foci indicate the presence of EV71 protein.
The EV71 RNA was extracted from infected cells and culture supernatants with TRIzol (Gibco-Invitrogen, Carlsbad, CA, USA) and reverse-transcribed using a PrimeScript RT reagent kit (TaKaRa, Dalian, China) according to the manufacturer’s instructions. The products of reverse transcription were quantified with the SYBR Premix Ex Taq II (perfect real time) kit (TaKaRa) and detected with a Step One Plus sequence detection system (Applied Biosystems, Foster City, CA, USA). Expression of actin was used as an internal standard. The special primer sequences were: EV71-VP1-F: 5'-[…]-3', EV71-VP1-R: 5'-GTCTCAATCATGCTCTC GTCACT-3'; Actin-F: 5'-[…]-3', Actin-R: 5'-AGGGGCCGGACTCGT CATACT-3'.

EV71 protein = experiment: Viral protein by indirect immunofluorescence in RD cells; assay type: cell-based, Enterovirus 71; details: 40 µg/mL post-infection, RD cells, 4, 8 or 24 h
Experimental: as §1
The influence of 4s on the replication of EV71 was also determined at the translational level. The RD cells grown in 24 coverslips were infected with EV71 and treated with 40 µg/mL 4s post-infection, intracellular viral protein was detected by indirect immunofluorescence analysis after incubation for 4, 8 or 24 h. […]

EV71-infected RD cells = experiment: EV71-induced apoptosis, Annexin-V/propidium iodide flow cytometry; assay type: cell-based, Human; details: 40 µg/mL, 100 TCID50 EV71, 36–48 h
Experimental: EV71 adsorption, internalization, entry, uncoating, and viral RNA replication are […] to trigger infected cell apoptosis, but it is required for viral protein synthesis. Flow cytometry was performed to investigate the effect of 4s on virus-induced cell apoptosis. In the assays, EV71-infected cells were stained with Annexin-V-fluorescein and propidium iodide; fluorescence drifting indicates cells undergoing apoptosis.
Figure 5 Inhibition effect of 4s on EV71-induced apoptosis. RD cells were (A) left untreated or (B) infected with 100 TCID50 of EV71. After viral adsorption, RD cells were incubated in the (B) absence or (C) presence of 40 µg/mL 4s for 36–48 h; (D) The cells were stained with Annexin-V- fluorescein and propidium iodide and measured using flow cytometry. TEXT PRINTED IN THE PICTURE: (C) Virus + 4s: Q1 3.21%; Q2 4.06%; Q4 89.2%; Q3 3.55% DOUBTS OF THE COPYIST ABOUT THIS PICTURE: Panels A (Mock) and B (Virus control) also print quadrant percentages (A: 0.548%, 1.84%, 93.9%, 3.75%; B: 1.32%, 40.1%, 23.7%, 34.9%). I left them out because they are controls without a substance.
For the apoptosis assay, RD cells in 6-well plates infected with 100 TCID50 of EV71 were left untreated or treated with 40 µg/mL 4s for 36–48 h, until the CPEs of virus control cells reached 70%–80%. […]

Compound: c1ccc(C(Nc2nc3ccccc3s2)c2c[nH]c3ccccc23)nc1 (stereo not drawn) [Compound 4s]
- fold reduction of viral RNA copy number vs virus control (EV71 RNA; 4 h pi): 1.8 fold
- fold reduction of viral RNA copy number vs virus control (EV71 RNA; 8 h pi): 9.0 fold
- fold reduction of viral RNA copy number vs virus control (EV71 RNA; 24 h pi): 79.8 fold
- fold reduction of viral RNA copy number vs virus control (EV71 RNA; 36 h pi): 174.7 fold
- viral protein synthesis (immunofluorescent foci) (EV71 protein): suppressed
- EV71-induced apoptosis (fluorescence drifting) (EV71-infected RD cells): fluorescence drifting could hardly be observed
